According to paper PMC6024615, “Effect of Biliary Drainage on the Toxicity and Toxicokinetics of Amanita exitialis in Beagles” (Toxins, 2018):
Read-outs that look alike come from different tables or passages of the source. *1 amine or outer side, *2 acyl side, *3 side chain or, on linkers, in order; H or OH if unused. Where a SMILES comes first, the peptide text is derived from it. Bridges are numbered along the chain shown (N, C = ends). [ ]: non-standard residue; d: D form. Trp(2-yl) = O=C([C@H](Cc1c([*:3])[nH]c2ccccc12)N[*:1])[*:2]; Leu(4R-OH,5-OH) = C[C@](O)(CO)C[C@H](N)C(=O)O; dAsp(3S-OH) = N[C@@H](C(=O)O)[C@H](O)C(=O)O; cisHyp = O=C(O)[C@@H]1C[C@H](O)CN1

Legend:
[1] = Peptide toxins in the urine of beagles with biliary drainage; type: in vivo, beagle dogs; conditions: for Total (accumulated) amount excreted in urine / percentage of total urine excretion, Total: 0–4 days
Procedure: The study was approved by National Institute of Occupational Health and Poison Control review board for animal experiments. Twenty-four male beagles (age, 8–10 months; weight, 10 ± 1 kg) were obtained from Beijing Institute of Xieerxin Biology Resource (Beijing, China). They were randomly divided into four groups of six animals each: control, biliary drainage, and 20 and 60 mg/kg with biliary drainage groups. The biliary drainage operation was conducted in all groups barring the control group. The dogs were dressed in homemade underwear, coats, and Elizabeth circles for a week to ensure pre-experimental acclimatization (Figure S8a–c). After determining the baseline values for biochemical indicators, the dogs were fasted for 24 h but received water ad libitum. They were anesthetized by intravenous administration of pentobarbital sodium (3%, 1 mL/kg) during the surgery. A temperature of 38–39 °C was maintained with a warming mat. After skin preservation and sterilization, the abdominal cavity was opened through the central abdomen. The abdomen was explored and blunt dissection of the common bile duct was performed (Figure S8d). The common bile duct and its branches were ligated from the intestinal side. A 7.0-Fr drainage catheter (COOK, Bloomington, IN, USA) was percutaneously inserted into the gallbladder, and a medical drainage bag was connected to the drainage catheter coming out of the abdominal cavity. Each opened layer, including the peritoneum, abdominal wall muscle, and skin, was closed with suture. The operative incision was protected with sterile gauze and a bandage, and the dogs were dressed in homemade underwear, coats, and Elizabeth circles. The drainage bag was placed in the pocket of the coat (Figure S8e). After the anesthetic wore off, the dogs were placed in cages, and food and water were provided ad libitum. The operative incision was sterilized with iodophor twice a day until stitches were removed six days after surgery. The drainage bag was replaced every day. On the eighth day after surgery, the 20 and 60 mg/kg with biliary drainage groups were orally administered a lyophilized powder of Amanita exitialis in starch capsules. In control and bile drainage group, the beagle dogs were fed with empty capsules. Immediately after dosing, the animals were placed in their cages, and food and water were provided ad libitum. Dogs were sacrificed with an overdose of sodium pentobarbital at the end of the experiment. All procedures were performed according to the ethical standards of the National Institutes of Health Guide for Animal Welfare and approved by the Institutional Animal Care and Use Committee (EAWE-2017-005).
Peptide toxins in blood and urine samples were analyzed as described previously. Bile samples from Days 0–1, Days 1–2, Days 2–3, and Days 3–4 were collected and stored in medical drainage bags and the bile volume was recorded. Plasma and urine samples were stored at 2–8 °C until analysis for peptide toxins.
UPLC and MS/MS parameters were as described in our previous study. The limit of detection and limit of quantitation of each toxin in the bile were 0.03 mg/kg and 0.5 mg/kg, respectively.

[2] = cited from earlier work
Procedure: The difference in detectable time in the urine can be explained by the low level of internal exposure (amatoxins in the blood). […] The daily amounts of peptide toxins excreted in urine in beagles without biliary drainage(mg). Time after α-Amanitin β-Amanitin Phallacidin ingestion 20 mg/kg 60 mg/kg 20 mg/kg 60 mg/kg 20 mg/kg 60 mg/kg group group group group group group 0-1d 0.0379 0.0593 0.0156 0.0251 0.0035 0.0088 (97.9%) (92.8%) (99.9%) (94.7%) (94.2%) (76%) 1-2d 0.0388 0.0618 0.01567 0.0255 0.0037 0.0110 (99.995%) (97.5%) (100%) (96.2%) (100%) (93%) 2-3d 0.0002 0.0626 0 0.0260 0 0.0115 (100%) (99.4%) (100%) (98.2%) (100%) (97.3%) 3-4d 0 0.063 ...

[3] = 0–1 days, 60 mg/kg with biliary drainage group
[4] = 20 mg/kg with biliary drainage group
[5] = 60 mg/kg with biliary drainage group
[6] = 1–2 days, 20 mg/kg with biliary drainage group
[7] = 1–2 days, 60 mg/kg with biliary drainage group
[8] = 2–3 days, 20 mg/kg with biliary drainage group
[9] = 2–3 days, 60 mg/kg with biliary drainage group
[10] = 3-4d, 20 mg/kg with biliary drainage group
[11] = 3-4d, 60 mg/kg with biliary drainage group
[12] = 3–4 days, 20 mg/kg with biliary drainage group
[13] = 3–4 days, 60 mg/kg with biliary drainage group

CC(C)[C@@H]1NC(=O)[C@H](C[C@@](C)(O)CO)NC(=O)[C@@H]2Cc3c([nH]c4ccccc34)SC[C@H](NC(=O)[C@@H]([C@H](O)C(=O)O)NC1=O)C(=O)N1C[C@@H](O)C[C@H]1C(=O)N[C@@H](C)C(=O)N2 [phallacidin] (cyclo(A[Trp(2-yl)][Leu(4R-OH,5-OH)]V[dAsp(3S-OH)]C[cisHyp]); thioether 2-6)
detection rate of peptide toxins in urine ([1]; 0-1 d, 20 mg/kg with biliary drainage group): 100% | detection rate of peptide toxins in urine ([1]; 0-1 d, 60 mg/kg with biliary drainage group): 100% | daily amount excreted in urine ([1]; 0–1 days, 20 mg/kg with biliary drainage group): 0.0012 mg | percentage of total urine excretion excreted daily ([1]; 0–1 days, 20 mg/kg with biliary drainage group, 20 mg/kg): more than 90% | percentage of total urine excretion excreted daily ([1]; 0–1 days, 20 mg/kg with biliary drainage group, listed as Phallacidin, 20 mg/kg): 92.2% | daily amount excreted in urine [1, 3]: 0.0017 mg | percentage of total urine excretion excreted daily [1, 3]: 70.5% | Total (accumulated) amount excreted in urine [1, 4]: 0.0014 mg | percentage of total urine excretion, Total [1, 4]: 100% | Total (accumulated) amount excreted in urine [1, 5]: 0.0025 mg | percentage of total urine excretion, Total [1, 5]: 100% | time within which toxin was detected in urine [1, 4]: two | time within which toxin was detected in urine [1, 5]: three | detection rate of peptide toxins in urine ([1]; 1-2 d, 20 mg/kg with biliary drainage group): 83% | detection rate of peptide toxins in urine ([1]; 1-2 d, 60 mg/kg with biliary drainage group): 100% | daily amount excreted in urine [1, 6]: 0.0001 mg | percentage of total urine excretion excreted daily [1, 6]: 7.8% | daily amount excreted in urine [1, 7]: 0.0005 mg | percentage of total urine excretion excreted daily [1, 7]: 22.1% | detection rate of peptide toxins in urine ([1]; 2-3 d, 20 mg/kg with biliary drainage group): 0% | toxin content in urine ([1]; 2-3d, 20 mg/kg with biliary drainage group, mean ± SD): 0 µg/L | detection rate of peptide toxins in urine ([1]; 2-3 d, 60 mg/kg with biliary drainage group): 50% | daily amount excreted in urine [1, 8]: 0(0%) mg | percentage of total urine excretion excreted daily [1, 8]: 0(0%) | daily amount excreted in urine [1, 9]: 0.0002 mg | percentage of total urine excretion excreted daily [1, 9]: 7.5% | detection rate of peptide toxins in urine [1, 10]: 0% | toxin content in urine [1, 10]: 0 µg/L | detection rate of peptide toxins in urine [1, 11]: 0% | toxin content in urine [1, 11]: 0 µg/L | daily amount excreted in urine [1, 12]: 0(0%) mg | percentage of total urine excretion excreted daily [1, 12]: 0(0%) | daily amount excreted in urine [1, 13]: 0(0%) mg | percentage of total urine excretion excreted daily [1, 13]: 0(0%) | share of total urine excretion in the 0–2-day urine ([1]; beagles with biliary drainage, both dose groups): more than 90% | daily amount excreted in urine, without biliary drainage ([2]; 0-1d, 20 mg/kg group): 0.0035 mg | percentage in parentheses, urine, without biliary drainage ([2]; 0-1d, 20 mg/kg group): 94.2% | daily amount excreted in urine, without biliary drainage ([2]; 0-1d, 60 mg/kg group): 0.0088 mg | percentage in parentheses, urine, without biliary drainage ([2]; 0-1d, 60 mg/kg group): 76% | Accumulative amount excreted in urine, without biliary drainage ([2]; 20 mg/kg group): 0.0037 mg | percentage in parentheses, Accumulative amount, urine, without biliary drainage ([2]; 20 mg/kg group): 100% | percentage in parentheses, Accumulative amount, urine, without biliary drainage ([2]; 60 mg/kg group): 100% | percentage in parentheses, urine, without biliary drainage ([2]; 1-2d, 20 mg/kg group): 100% | daily amount excreted in urine, without biliary drainage ([2]; 1-2d, 60 mg/kg group): 0.0110 mg | percentage in parentheses, urine, without biliary drainage ([2]; 1-2d, 60 mg/kg group): 93% | daily amount excreted in urine, without biliary drainage ([2]; 2-3d, 20 mg/kg group): 0 mg | percentage in parentheses, urine, without biliary drainage ([2]; 2-3d, 20 mg/kg group): 100% | daily amount excreted in urine, without biliary drainage ([2]; 2-3d, 60 mg/kg group): 0.0115 mg | percentage in parentheses, urine, without biliary drainage ([2]; 2-3d, 60 mg/kg group): 97.3% | daily amount excreted in urine, without biliary drainage ([2]; 3-4d, 20 mg/kg group): 0 mg | percentage in parentheses, urine, without biliary drainage ([2]; 3-4d, 20 mg/kg group): 100% | daily amount excreted in urine, without biliary drainage ([2]; 3-4d, 60 mg/kg group): 0.0118 mg | percentage in parentheses, urine, without biliary drainage ([2]; 3-4d, 60 mg/kg group): 100%
